Assay results from US20100120679A1, “Targeting NBS1-ATM Interaction To Sensitize Cancer Cells To Radiotherapy And Chemotherapy” (SOUTHERN RESEARCH INSTITUTE, priority 2006, published 2010).
Peptide text beside a SMILES is read from it. * marks the point of attachment. Biotin = O=C1N[C@H]2[C@H](CS[C@H]2CCCCC(=O)*)N1

What was measured:
NBS1 binding to MRE11 = biological target: T1, NBS1 binding to MRE11 (Homo sapiens, UniProt P49959); assay: Co-immunoprecipitation of MRE11 with NBS1 in peptide-treated cells; type: cell-based; conditions: HeLa cells, four hours after peptide treatment
T1 construct: endogenous in cells; host or cells: HeLa
T1 sequence (P49959 1-708): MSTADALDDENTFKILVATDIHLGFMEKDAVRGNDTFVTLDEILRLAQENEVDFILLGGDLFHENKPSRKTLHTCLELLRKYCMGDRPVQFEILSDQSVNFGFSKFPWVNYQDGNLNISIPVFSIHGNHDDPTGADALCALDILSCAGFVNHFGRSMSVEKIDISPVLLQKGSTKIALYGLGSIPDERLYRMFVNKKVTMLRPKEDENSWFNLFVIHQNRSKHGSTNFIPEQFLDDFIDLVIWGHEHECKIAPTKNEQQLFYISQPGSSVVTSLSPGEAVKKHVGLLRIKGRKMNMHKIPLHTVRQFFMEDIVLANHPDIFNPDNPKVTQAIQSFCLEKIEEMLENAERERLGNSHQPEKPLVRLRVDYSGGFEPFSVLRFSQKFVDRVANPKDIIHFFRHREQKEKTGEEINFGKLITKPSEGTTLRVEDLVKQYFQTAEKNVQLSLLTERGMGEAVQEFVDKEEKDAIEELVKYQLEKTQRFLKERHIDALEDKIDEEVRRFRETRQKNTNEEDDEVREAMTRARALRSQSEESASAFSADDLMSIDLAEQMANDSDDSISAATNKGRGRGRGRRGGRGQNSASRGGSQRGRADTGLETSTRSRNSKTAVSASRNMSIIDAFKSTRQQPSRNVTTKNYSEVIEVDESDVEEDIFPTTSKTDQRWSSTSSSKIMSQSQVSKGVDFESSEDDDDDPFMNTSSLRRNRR
Description: HeLa cells treated with the NIP peptides were irradiated (0 or 6Gy). Immunoprecipitation was performed with a rabbit NBS1 antibody, and Western blotting was performed with monoclonal antibodies against ATM, NBS1 or MRE11.
Immunoprecipitation and Western blotting: For co-immunoprecipitation of ATM, NBS1 and MRE11, cells were lysed 1 hour in ice-cold lysis buffer, which consisted of 10 mM Tris-HCl (pH 7.5), 100 mM NaCl, 5 mM EDTA, 0.5% NP-40, 5 mM Na3VO4, 1 mM NaF, and 1 mM PMSF. After centrifugation, supernatants were incubated with indicated antibodies. After extensive washing with the lysis buffer, immunoprecipitates were analyzed by immunoblot using specific antibodies. For western blotting analysis, samples (cell lysates or immunoprecipitates) were separated on 4-12% SDS-poly-acrylamide gels, transferred to nitrocellulose membranes, and probed with various antibodies.
wtNIP Abrogated the NBS1-ATM Interaction: To investigate whether R9-conjugated NIP peptides could inhibit NBS1-ATM interactions, coimmunoprecipitation experiments were performed in cells treated with the NIP peptides. Four hours after peptide treatment, HeLa cells were harvested and subjected to immunoprecipitation using an anti-NBS1 antibody. The immunoprecipitates were then blotted with anti-ATM, NBS1, and MRE11 antibodies.

[1] = tested on: NBS1 phosphorylation on serine 343 in HeLa cells; assay: IR-induced NBS1 pSer343 focus formation, HeLa; type: cell-based, human
Excerpt: (§1) Error bars represent +/−1 SD, graphed are the mean of three independent experiments.
(§2) To further support the idea that wtNIP can inhibit ATM-mediated DNA damage pathways, IR-induced NBS1 focus formation, an event considered to be an ATM-dependent process at the sites of DSBs (Lim et al., 2000) was investigated. NBS1 foci are a result of ATM-mediated NBS1 phosphorylation on serine 343. […] The average number of foci in mock-irradiated HeLa cells was 6, 8, and 6 for R9, wtNIP, and scNIP, respectively.

[2] = tested on: NBS1 phosphorylation on serine 343 in DU-145 cells; assay: IR-induced NBS1 pSer343 focus formation, DU-145; type: cell-based, human; conditions: DU-145, 10 μM peptide, 6Gy, 120 minutes
Excerpt: as §1, §2

[3] = tested on: γ-H2AX foci in DU-145 cells; assay: IR-induced γ-H2AX focus formation, DU-145; type: cell-based, human; conditions: 10 μM peptide, 6Gy
Excerpt: as §1
wtNIP Inhibits IR-Induced γ-H2AX and NBS1 pSer343 Focus Formation: One of the earliest responses to IR-induced DNA damage is the formation of γ-H2AX foci, which requires functional ATM (Burma et al., 2001; Furuta et al., 2003). […] Immunofluorescence microscopy was used to detect the presence of γ-H2AX foci in mock-irradiated or irradiated cells in the presence of R9, wtNIP or scNIP. […] Therefore, IR-induced γ-H2AX focus formation can be inhibited by wt-NIP.

Q: With `CC(C)C[C@H](NC(=O)[C@H](CC(=O)O)NC(=O)[C@H](CC(=O)O)NC(=O)[C@H](C)NC(=O)[C@H](CC(C)C)NC(=O)[C@H](CO)NC(=O)[C@H](CCC(=O)O)NC(=O)[C@H](CCC(=O)O)NC(=O)[C@H](CCCCN)NC(=O)[C@H](CCCNC(=N)N)NC(=O)[C@H](CCCNC(=N)N)NC(=O)[C@H](CCCNC(=N)N)NC(=O)[C@H](CCCNC(=N)N)NC(=O)[C@H](CCCNC(=N)N)NC(=O)[C@H](CCCNC(=N)N)NC(=O)[C@H](CCCNC(=N)N)NC(=O)[C@H](CCCNC(=N)N)NC(=O)[C@H](CCCNC(=N)N)NC(=O)CCCC[C@@H]1SC[C@@H]2NC(=O)N[C@@H]21)C(=O)O` [wtNIP] (Biotin-RRRRRRRRRKEESLADDL-OH) as the compound, how does the “NBS1 binding to MRE11” value (NBS1 binding to MRE11) read?
A: Its value is “did not interfere with NBS1 binding to MRE11”.

Q: And the “NBS1 pSer343 foci per nucleus” value ([1]; HeLa cells after treatment with 6-Gy IR)?
A: The value was 6 foci per nucleus.

Q: And the “NBS1 phosphorylation (anti-phospho-Ser343 NBS1 antibody)” value ([1]; compared with R9 or scNIP treated cells)?
A: Its value is “significantly inhibited”.

Q: What about the “average number of NBS1 pSer343 foci” value ([1]; mock-irradiated HeLa cells) of the same compound?
A: Its value is 8.

Q: What about the “IR-induced NBS1 phosphorylation” value [2] of the same compound?
A: Its value is “abrogates IR-induced NBS1 phosphorylation”.

Q: And the “IR-induced γ-H2AX focus formation” value [3]?
A: The value was “significantly reduced H2AX foci/nucleus”.
